From patent US11905268B2, “Anthranilic acid derivatives and their use in the treatment of human cancers” (UNIVERSITY OF CENTRAL FLORIDA RESEARCH FOUNDATION, INC., priority 2018, dated 2024)
pEC50, pIC50: −log10 of the molar value. Where two headings read alike, the source gives them in different places.

Assays:
[1] = test system: DFMO treated Chinese hamster ovary (CHO) cells; assay: DFMO/spermidine rescue assay in CHO cells (Assay 2); format: cell-based
Description: In the reconfirmation assay compounds were run in quadruplicate. […] A PTI compound is expected to block the entry or disrupt the intracellular trafficking of spermidine and inhibit the ability of spermidine to rescue the growth or viability of DFMO treated cells.
DFMO/Spermidine assay Here cells were treated with an inhibitor of polyamine biosynthesis (DFMO) and rescued back to high viability by the presence of exogenous polyamine (spermidine). Putative PTI compounds were screened for their ability to block the entry or intracellular trafficking of exogenous spermidine (or otherwise disrupt the intracellular trafficking of spermidine) by measuring cell viability in the presence of DFMO+spermidine+PTI compound. […] This was followed by adding 10 μL of […] and 5 μM spermidine (FAC 5 mM DFMO and 1 μM spermidine) in assay medium with a Beckman BioRAPTR FRD dispenser or 10 μL of 5 mM DFMO added in assay medium (positive control). […] A PTI compound is expected to block the entry or disrupt the intracellular trafficking of spermidine and inhibit the ability of spermidine to rescue the growth or viability of DFMO treated cells Cytotoxicity

CHO cells [2] = assay: Ant44 rescue assay in CHO cells (Assay 1); format: cell-based, Chinese hamster; conditions: for pIC50 / pEC50: Cricetulus griseus; for pIC50: Table 7, read-out: SAR IC50 Ant44 assay
Description: CHO K1 cells were grown in growth medium (RPMI+10% FBS+1×P/S+1% l-glutamine) to 70% confluency, washed in PBS and trypsinized. Cells were plated in assay medium (serum free RPMI+2% FBS+1×l-glutamine+1×P/S+[…] aminoguanidine) at 50000 cells/mL for 200 cells per well in 4 ul using a Thermo Multidrop Combi into a 1536-well white Aurora plate.
Ant44 is a cytotoxic polyamine, i.e., N^1-(9-anthracenyl)-homospermidine. A non-toxic PTI compound would block entry or intracellular trafficking of the Ant44 toxin and rescue the cells back to high viability. Therefore, this screen tested for compounds which rescued cells from Ant44 toxicity. […] This was followed by adding 10 uL of 10 uM Ant44 (FAC 2 uM) in assay medium with a Beckman BioRAPTR FRD dispenser or 10 uL of cells added in assay medium (positive control).

CHO cells [3] = assay: Cytotoxicity screen in CHO cells; conditions: for IC50 at 48 h: Chinese hamster, CHO K1 cells; for tox (DFMO Assay) / Tox (Ant44): toxic above the stated concentration, CHO cells; for tox (DFMO Assay): listed with DFMO assay; for Tox (Ant44): listed with Ant44 assay
Description: CHO K1 cells were grown in growth medium to 70% confluency and washed in PBS and trypsinized. […] Cells were spun at 100×g for 1 minute and incubated at 37° C. in a humidified CO2 incubator for 24 hours. […] Cellular ATP content was then assayed by adding 3 uL of ATPLite with a Beckman BioRAPTR FRD dispenser and incubated for 10 minutes at room temperature. Plates were spun at 200×g for 1 minute and read on a Perkin Elmer Viewlux multimode plate reader using luminescence mode. This assay was used for testing dose-response of dry powders.
CHO K1 cells were grown in growth medium to 70% confluency and washed in PBS and trypsinized. Cells were plated in assay medium at 10000 cells/mL for 200 cells per well using a Thermo Multidrop Combi in 20 uL into a white Greiner plate. Cells were spun at 100×g for 1 minute and incubated at 37° C. in a humidified CO2 incubator for 24 hours. […] This was followed by adding by 10 μL of assay medium to all wells with a Beckman BioRAPTR FRD dispenser. The plates were spun at 200×g for 1 minute and incubated at 37° C. in a humidified 5% CO2 incubator for 48 hours. Cellular ATP content was then assayed by adding 20 μL of ATPLite with a Beckman BioRAPTR FRD dispenser and incubated for 10 min at room temperature. Plates were spun at 200×g for 1 minute and read on a Perkin Elmer Envision for multimode plate reader using luminescence mode. Duplicates were run for each compound concentration, and the curves represent the average of the duplicates as percent viability.
The final compound concentration was either 20 μM or 10 μg/mL (depending upon the compound source). A successful PTI in Assay 1 would block the uptake of the toxic Ant44 probe and rescue the cells back to >90% relative growth vs an untreated control. It was critical to also evaluate the toxicity of the PTI by itself as a toxic PTI would give a false negative in Assay1 (and a false positive in Assay 2). […] Assay 2 then evaluated the ability of the compound to inhibit the uptake of a rescuing dose of Spermidine (Spd, 1 μM) into DFMO-treated CHO cells.

[4] = Cricetulus griseus, CHO, Table 7, read-out: SAR IC50 DFMO assay
[5] = Table 1 HTS top hits, CHO cells, read-out: Ant44 EC50
[6] = Cricetulus griseus, Table 1 HTS top hits, CHO cells, read-out: DFMO Assay IC50
[7] = Table 1 HTS top hits, CHO cells

Row | Structure (SMILES) | pIC50 [1, 4] | pIC50 (CHO cells [2]; CHO) | pEC50 (CHO cells [2]; [5]) | IC50 at 48 h (CHO cells [3]) [µM] | tox (DFMO Assay) (CHO cells [3]) | pIC50 [1, 6] | Tox (Ant44) (CHO cells [3]) | further results
1 | COc1ccc(C(=O)Nc2ccc(N3CCN(c4cc(Cl)ccc4C)CC3)cc2C(=O)O)c(OC)c1 [SBI-0801324, 5-(4-(5-chloro-2-methylphenyl)piperazin-1-yl)-2-(2,4-dimethoxybenzamido)benzoic acid] | < 4.40 | < 4.40 | 4.51 | > 40 | Non tox | – | – | DFMO Assay IC40 ([1]; Table 1, CHO cells): 31 µM
2 | COc1ccccc1C(=O)Nc1ccc(CN2CCN(c3ccccn3)CC2)cc1C(=O)O [SBI-0814423, 2-(2-Methoxybenzamido)-5-((4-(pyridin-2-yl)piperazin-1-yl)methyl)benzoic acid] | < 4.40 | < 4.40 | – | > 40 | – | – | – | –
3 | COc1ccc(S(=O)(=O)Nc2ccc(N3CCN(c4cc(Cl)ccc4C)CC3)cc2C(=O)O)cc1 [SBI-0801326, 5-(4-(5-chloro-2-methylphenyl)piperazin-1-yl)-2-(4-methoxyphenylsulfonamido)benzoic acid] | < 4.40 | < 4.40 | – | > 40 | – | – | – | –
4 | COc1ccccc1N1CCN(c2ccc(N3C(=O)CCC3=O)cc2[N+](=O)[O-])CC1 [SBI-0800661] | 4.52 | < 4.40 | – | 27 | – | < 4.70 | – | Ant44 EC50 (CHO cells [2]; [7]): SBI- 0800661.0001 No effect
5 | COc1ccc(C(=O)Nc2ccc(N3CCN(c4cc(Cl)ccc4C)CC3)c(C(=O)O)c2)cc1 [SBI-0800662] | 5.30 | < 4.40 | – | 14 | – | ~5.30 | – | Ant44 EC50 (CHO cells [2]; [7]): SBI- 0800662.0001 No effect
6 | COc1ccccc1C(=O)Nc1ccc(N2CCN(CCCc3ccccc3)CC2)cc1C(=O)O [SBI-0814416, 2-(2-methoxybenzamido)-5-(4-(3-phenylpropyl)piperazin-1-yl)benzoic acid] | < 4.40 | < 4.40 | – | > 40 | – | – | – | –
7 | COc1ccc(C(=O)Nc2ccc(N3CCN(c4ccccc4Cl)CC3)cc2C(=O)O)cc1 [SBI-0800682] | 4.57 | < 4.40 | – | 28 | > 10 µM | 4.82 to 5.00 | > 20 µM | Ant44 EC40 (CHO cells [2]; Table 1, CHO cells): ~15 µM
8 | COc1ccc(CC(=O)Nc2ccc(N3CCN(c4cc(Cl)ccc4C)CC3)cc2C(=O)O)cc1 [SBI-0754480] | – | 4.49 | 4.51 | 24 | > 20 µM | 5.00 to 5.30 | – | –
9 | COc1ccc(C(=O)Nc2ccc(N3CCN(c4ccc(OC)cc4)CC3)cc2C(=O)O)cc1 [SBI-0800680] | < 4.40 | < 4.40 | 4.51 | > 40 | no tox | < 4.51 | ~5 µM | –
10 | COC(=O)c1cc(N2CCN(c3cc(Cl)ccc3C)CC2)ccc1NC(=O)c1ccc(OC)cc1 [SBI-0801722, methyl 5-(4-(5-chloro-2-methylphenyl)piperazin-1-yl)-2-(4-methoxybenzamido)benzoate] | < 4.40 | < 4.40 | – | > 40 | – | – | – | –
11 | COc1ccc(C(=O)Nc2ccc(N3CCN(c4cccc(C)c4C)CC3)cc2C(=O)O)cc1 [SBI-0800686] | – | – | ~5.00 | – | SBI- 0800686.0001 (IC50 ~5, tox >5) μM | ~5.30 | SBI- 0800686.0001 Tox >10, EC50 near 10 μM | –
12 | COc1ccccc1N1CCN(c2ccc(NC(=O)c3ccccc3Cl)c(C(=O)O)c2)CC1 [SBI-0800670] | – | 4.80 | 4.70 | 36 | > 15 µM | 4.82 to 5.00 | SBI- 0800670.0001 (20 EC50) Tox >20 μM | –
13 | COC(=O)c1cc(CN2CCN(c3ccccn3)CC2)ccc1NC(=O)c1ccccc1OC [SBI-0814422, Methyl 2-(2-methoxybenzamido)-5-((4-(pyridin-2-yl)piperazin-1-yl)methyl)benzoate] | < 4.70 | < 4.70 | – | > 20 | – | – | – | –
14 | COC(=O)c1cc(N2CCN(c3cc(Cl)ccc3C)CC2)ccc1NC(=O)c1ccc(OC)cc1OC [SBI-0801723, methyl 5-(4-(5-chloro-2-methylphenyl)piperazin-1-yl)-2-(2,4-dimethoxybenzamido)benzoate] | < 4.40 | < 4.40 | – | > 40 | – | – | – | –
15 | COc1ccccc1C(=O)Nc1ccc(N2CCN(c3cccc(C)c3C)CC2)cc1C(=O)O [SBI-0800676] | 4.64 | 5.70 | 4.70 | 28 | SBI- 0800676.0001 (IC50 ~15, tox >15) μM | ~4.82 | SBI- 0800676.0001 (20 EC50) Tox >20 μM | –
16 | CCOc1ccccc1N1CCN(c2ccc(NC(=O)c3ccc(OC)cc3)c(C(=O)O)c2)CC1 [SBI-0800683] | 4.70 | < 4.40 | 4.70 | 37 | SBI- 0800683.0001 (IC50 ~20 μM, tox >20 μM) | ~4.70 | SBI- 0800683.0001 (20 μM EC50) Tox >20 μM | pEC50 ([1]; Cricetulus griseus, CHO, Table 2): ~4.70; pIC50 ([1]; Cricetulus griseus, CHO, Table 4B, read-out: DFMO/CHO IC50): 4.70; pEC50 (CHO cells [2]; CHO, Table 2, Active in Ant44 assay?, read-out: Ant44 assay EC50 in CHO): ~4.70; Active in Ant44 assay? (CHO cells [2]; Table 2, in CHO): Yes; Ant44 IC50 (CHO cells [2]; Table 4B, CHO cells): trace; CHO MTD (CHO cells [3]; hamster): 20 µM; CHO MTD EC50 (CHO cells [3]; hamster): (37) μM
17 | COc1ccccc1N1CCN(c2ccc(NC(=O)c3cccs3)cc2C(=O)O)CC1 [SBI-0800666] | 4.57 | < 4.40 | – | > 40 | – | 4.49 to 4.70 | – | Ant44 EC50 (CHO cells [2]; [7]): SBI- 0800666.0001 No effect
18 | COc1ccccc1C(=O)Nc1ccc(N2CCN(Cc3ccccc3)CC2)cc1C(=O)O [SBI-0814414, 5-(4-benzylpiperazin-1-yl)-2-(2-methoxybenzamido)benzoic acid] | < 4.40 | < 4.40 | – | > 40 | – | – | – | –
